{"source": "paper PMC7767506", "about": "“Synthesis and Characterization of Store-Operated Calcium Entry Inhibitors Active in the Submicromolar Range” (International Journal of Molecular Sciences, 2020)", "key": {"[1]": {"tested_on": "Orai1-expressing lymphoblastoid cell line", "assay": "SOCE in Orai1-expressing lymphoblastoid cell line (LCL Orai1+)", "format": "cell-based, human", "conditions": "1 µM", "experimental": "We next tested P11 efficacy on two lymphoblastoid cell lines (“LCL”) established from an Orai1-deficient with a severe combined immunodeficiency (“LCL Orai1−”) and a healthy (“LCL Orai1+”) patients (Figure 3C [19]). […] However, CaCl2 addition after 10 min of TG treatment was only able to induce a massive [Ca^2+]cyt rise in LCL expressing Orai1 proteins, confirming the SOCE default of the SCID patient.\n[Ca^2+]cyt was recorded by a fluorimetric ratio technique as previously described. Leukocytes were spun and resuspended at a density of 10^6 cells/mL in Hepes buffered saline (HBS; 135 mM NaCl, 5.9 mM KCl, 1.2 mM MgCl2, 11.6 mM Hepes, 11.5 mM glucose adjusted to pH 7.3 with NaOH). Due to the presence of 0.002% Ca^2+ in the NaCl, this HBS medium contained 0.1 mM of Ca^2+. […] Ultraviolet light of 360 nm was used for excitation of Indo-1, and emissions at 405 and 480 nm were recorded. […] The maximum Indo-1 fluorescence (Rmax) was obtained by adding 1 µM ionomycin to the cell suspension in the presence of 10 mM extracellular CaCl2. Minimum fluorescence was determined following the depletion of external Ca^2+ with 5 mM EGTA.\nTo visualize the SOCE, cells were placed into the quartz cuvette and 0.5 EGTA was added just before the beginning of the recordings. […] In the dose-response experiments, different concentrations of 2-APB and its analogs were added 30 s prior to Ca^2+ readdition."}, "Jurkat cells": {"tested_on": "Jurkat cells", "assay": "Cell death by trypan blue staining of Jurkat cells", "format": "cell-based, human", "experimental": "As this diminution in IL-2 synthesis can both be explained by the decrease of its synthesis by all cells, or by a decrease in the number of cells that can synthesize IL-2, we next evaluated cell death by trypan blue staining in the presence of PHA stimulation with and without the addition of compound P11.\nForty-eight-well plates were seeded with 10^6 Jurkat T cells per well. Cells were then incubated for 24 h with or without 10 µg/mL PHA and 0 to 1 µM P11 in complete culture medium. After 24 h, supernatants were collected, and IL-2 amounts were quantified using a Quantikine Human IL-2 Immunoassay (R&D Systems Europe, Lille, France). Optical density (OD) was measured at 450 nm using a Victor3 plate reader (Perkin Elmer, Courtaboeuf, France). The concentration of supernatant IL-2 was determined from the OD curve obtained with the standard. Results were the mean of four repeats. In parallel plates, cell viability was accessed after treatment with trypan blue and counting with a Malassez hematimeter (Sigma-Aldrich, Saint Quentin Fallavier, France)."}, "IP3R1": {"biological_target": "T1, IP3R1 (Mus musculus, UniProt P11881)", "T1 construct": "expressed in transfected cells; host or cells: L15 fibroblast cell line (gift of Katsuhiko Mikoshiba), saponin-permeabilized", "T1 sequence (P11881 whole entry)": "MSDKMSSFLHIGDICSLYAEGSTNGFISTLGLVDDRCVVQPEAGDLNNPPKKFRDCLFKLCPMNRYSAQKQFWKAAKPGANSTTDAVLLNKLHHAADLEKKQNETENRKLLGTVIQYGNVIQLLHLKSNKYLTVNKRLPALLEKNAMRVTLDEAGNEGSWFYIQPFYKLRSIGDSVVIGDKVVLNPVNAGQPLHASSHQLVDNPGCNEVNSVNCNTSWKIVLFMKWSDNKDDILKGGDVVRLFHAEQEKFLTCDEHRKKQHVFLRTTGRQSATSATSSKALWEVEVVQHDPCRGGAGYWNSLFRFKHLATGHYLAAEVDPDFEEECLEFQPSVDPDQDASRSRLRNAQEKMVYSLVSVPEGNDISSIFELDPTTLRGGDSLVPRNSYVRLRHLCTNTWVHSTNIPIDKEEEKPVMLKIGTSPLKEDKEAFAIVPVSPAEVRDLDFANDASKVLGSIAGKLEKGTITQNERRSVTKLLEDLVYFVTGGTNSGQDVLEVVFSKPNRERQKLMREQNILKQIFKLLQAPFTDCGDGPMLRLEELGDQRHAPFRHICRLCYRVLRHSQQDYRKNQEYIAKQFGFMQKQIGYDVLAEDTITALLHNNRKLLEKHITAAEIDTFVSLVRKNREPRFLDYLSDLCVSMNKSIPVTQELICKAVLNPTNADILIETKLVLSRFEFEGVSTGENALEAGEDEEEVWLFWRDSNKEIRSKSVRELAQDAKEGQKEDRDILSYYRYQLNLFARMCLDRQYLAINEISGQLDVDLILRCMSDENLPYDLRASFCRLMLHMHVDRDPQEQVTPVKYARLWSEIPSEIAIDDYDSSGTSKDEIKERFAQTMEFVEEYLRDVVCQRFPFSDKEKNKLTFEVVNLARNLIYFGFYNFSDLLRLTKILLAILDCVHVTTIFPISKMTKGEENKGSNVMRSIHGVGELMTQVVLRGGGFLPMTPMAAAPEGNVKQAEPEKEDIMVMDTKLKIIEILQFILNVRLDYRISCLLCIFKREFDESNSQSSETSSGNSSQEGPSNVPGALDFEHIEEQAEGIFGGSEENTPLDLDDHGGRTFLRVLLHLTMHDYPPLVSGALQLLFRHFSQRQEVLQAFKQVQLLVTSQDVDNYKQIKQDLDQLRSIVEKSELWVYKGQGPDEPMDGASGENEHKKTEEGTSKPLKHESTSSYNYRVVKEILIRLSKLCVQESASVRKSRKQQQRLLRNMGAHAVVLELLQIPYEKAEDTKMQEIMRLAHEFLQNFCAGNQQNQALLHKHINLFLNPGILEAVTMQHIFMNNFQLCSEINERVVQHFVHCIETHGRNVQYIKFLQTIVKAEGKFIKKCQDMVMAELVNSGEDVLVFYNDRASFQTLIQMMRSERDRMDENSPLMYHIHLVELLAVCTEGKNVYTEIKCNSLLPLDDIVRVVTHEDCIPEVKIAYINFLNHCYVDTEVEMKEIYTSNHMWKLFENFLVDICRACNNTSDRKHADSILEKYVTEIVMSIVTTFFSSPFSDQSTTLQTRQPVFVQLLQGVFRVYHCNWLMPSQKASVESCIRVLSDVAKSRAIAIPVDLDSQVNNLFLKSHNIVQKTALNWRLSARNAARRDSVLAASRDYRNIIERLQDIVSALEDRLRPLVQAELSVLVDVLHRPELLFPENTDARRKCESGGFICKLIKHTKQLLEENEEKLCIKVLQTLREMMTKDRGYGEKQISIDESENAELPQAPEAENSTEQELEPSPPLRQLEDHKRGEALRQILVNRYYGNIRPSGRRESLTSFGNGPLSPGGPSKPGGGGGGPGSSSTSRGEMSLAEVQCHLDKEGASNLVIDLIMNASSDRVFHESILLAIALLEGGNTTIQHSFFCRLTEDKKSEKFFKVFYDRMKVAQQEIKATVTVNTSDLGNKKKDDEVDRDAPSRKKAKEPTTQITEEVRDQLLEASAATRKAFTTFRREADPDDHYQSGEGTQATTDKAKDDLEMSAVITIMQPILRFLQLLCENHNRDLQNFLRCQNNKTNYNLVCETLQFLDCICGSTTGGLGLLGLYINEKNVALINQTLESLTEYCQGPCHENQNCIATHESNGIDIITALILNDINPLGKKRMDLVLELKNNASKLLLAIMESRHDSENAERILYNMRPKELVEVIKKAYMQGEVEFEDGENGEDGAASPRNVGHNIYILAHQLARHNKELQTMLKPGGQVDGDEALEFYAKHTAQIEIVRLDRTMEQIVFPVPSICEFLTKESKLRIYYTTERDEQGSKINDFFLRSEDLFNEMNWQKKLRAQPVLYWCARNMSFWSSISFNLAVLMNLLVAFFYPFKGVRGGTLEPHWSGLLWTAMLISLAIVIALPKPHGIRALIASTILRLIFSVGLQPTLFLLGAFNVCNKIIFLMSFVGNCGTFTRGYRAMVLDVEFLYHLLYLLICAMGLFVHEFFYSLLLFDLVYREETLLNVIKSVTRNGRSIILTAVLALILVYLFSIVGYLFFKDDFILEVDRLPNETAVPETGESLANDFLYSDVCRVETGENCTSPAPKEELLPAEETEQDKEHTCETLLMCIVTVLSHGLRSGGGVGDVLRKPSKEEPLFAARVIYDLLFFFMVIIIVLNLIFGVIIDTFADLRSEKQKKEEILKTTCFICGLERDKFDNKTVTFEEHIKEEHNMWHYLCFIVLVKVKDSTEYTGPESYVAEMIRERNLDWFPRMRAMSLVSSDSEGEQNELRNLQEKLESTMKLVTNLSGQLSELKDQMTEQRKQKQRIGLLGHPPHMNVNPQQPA", "assay": "IP3-induced Ca2+ release (IICR) in permeabilized L15 fibroblasts overexpressing IP3R1", "format": "cell-based", "experimental": "Measurements of SERCA-mediated ^45Ca^2+ store loading and IP3-dependent release from the ER Ca^2+ store were performed on permeabilized cells in unidirectional conditions. As this approach required the use of cells forming strongly adherent monolayers, we used L15 fibroblasts stably overexpressing IP3R1, similarly to our previous work.\nThe L15 fibroblasts stably overexpressing IP3R1 were seeded in gelatin-coated 12-well plates (Greiner, Frickenhausen, Germany) at a density of 60,000 cells per well. Unidirectional ^45Ca^2+ flux experiments on confluent cell monolayers were performed at 30 °C after membrane permeabilization with saponin (40 µg/mL), exactly as previously described. After permeabilization, the non-mitochondrial Ca^2+ stores were loaded for 45 min in 120 mM KCl, 30 mM imidazole–HCl (pH 6.8), 5 mM MgCl2, 5 mM ATP, 0.44 mM EGTA, 10 mM NaN3, and 150 nM free ^45Ca^2+ (28 µCi mL^−1). Subsequently, efflux was initiated by incubation in efflux medium (120 mM KCl, 1 mM EGTA, 10 µM TG and 30 mM imidazole–HCl pH 6.8). The latter medium was replaced every two minutes for 18 minutes. The exact amount of Ca^2+ at each time point is calculated by summing in retrograde order the amount of radioactivity remaining in the cells at the end of the efflux and the radioactivity collected during the successive time intervals. This allows to calculate the steady-state content of the ER Ca^2+ stores (indicative for the SERCA activity, after subtraction of the loading achieved in the presence of 2 µM TG) the basal leak rate of Ca^2+ out of the stores and the IP3-induced Ca^2+ release after addition of IP3 (0.7 µM). These various parameters were measured both in control conditions or in the presence of various 2-APB analogs as indicated. To assess the effect of the 2-APB analogs on the SERCA-mediated loading of the ER Ca^2+ stores, the analogs were added during the ^45Ca^2+-loading phase as described previously. […]"}, "Jurkat cell SOCE": {"tested_on": "Jurkat cell SOCE", "assay": "Thapsigargin-induced SOCE in Jurkat cells, Indo-1 [Ca2+]cyt measurement", "format": "cell-based, human", "conditions": "Jurkat cells; for Ki: 1 µM thapsigargin 10 min, compound added 30 s prior to 1 mM CaCl2", "experimental": "To visualize SOCE, we performed a classical protocol: Jurkat cells in Ca^2+-free HBS medium are stimulated by 1 µM thapsigargin (TG, black arrow, Figure 2A) during 600 s to allow the release of Ca^2+ ions by the ER, and the subsequent opening of the store-operated Ca^2+ channels (SOCC). Addition of 1 mM CaCl2 allowed for a massive entry of Ca^2+ ions through SOCC leading thus to an increase of the cytosolic calcium concentration ([Ca^2+]cyt). To test 2-APB and its analogues, different concentrations of compounds were added 30 s prior to Ca^2+ addition.\n[Ca^2+]cyt was recorded by a fluorimetric ratio technique as previously described. Leukocytes were spun and resuspended at a density of 10^6 cells/mL in Hepes buffered saline (HBS; 135 mM NaCl, 5.9 mM KCl, 1.2 mM MgCl2, 11.6 mM Hepes, 11.5 mM glucose adjusted to pH 7.3 with NaOH). Due to the presence of 0.002% Ca^2+ in the NaCl, this HBS medium contained 0.1 mM of Ca^2+. Then, cells were incubated in the dark with 4 μM Indo-1-AM for one hour at room temperature under slow agitation. Cells were then centrifuged and resuspended in HBS medium before measurement. To perform the experiments, 0.5 to 1 × 10^6 cells were suspended in 2 mL HBS in a quartz cuvette and inserted into a spectrofluorophotometer (RF-1501 Shimadzu Corporation, Kyoto, Japan) connected to a PC computer (Dell Computer Corp., Montpellier, France). A temperature of 37°C was maintained by circulating water from a bath. Ultraviolet light of 360 nm was used for excitation of Indo-1, and emissions at 405 and 480 nm were recorded. Background and autofluorescence of the cell suspension were subtracted from the recordings. The maximum Indo-1 fluorescence (Rmax) was obtained by adding 1 µM ionomycin to the cell suspension in the presence of 10 mM extracellular CaCl2. Minimum fluorescence was determined following the depletion of external Ca^2+ with 5 mM EGTA.\nTo visualize the SOCE, cells were placed into the quartz cuvette and 0.5 EGTA was added just before the beginning of the recordings. To induce the SOCE, the cells were treated with 1 μM thapsigargin (TG) during 10 min in Ca^2+-free HBS to induce Ca^2+ release from the ER and the opening of SOCE channels. Then, 1 mM CaCl2 was added to measure the change in [Ca^2+]cyt subsequently to Ca^2+ influx. In the dose-response experiments, different concentrations of 2-APB and its analogs were added 30 s prior to Ca^2+ readdition."}}, "note": "“And” between values parts separate entries of the source, which are not always exact repeats. Equal values may be shown once. “Also recorded” adds a separate entry of the source. Read-outs that look alike come from different tables or passages of the source."}
{"substance": "2-(dibiphenyl-4-ylboryloxy)ethanamine [P11]", "values": [{"measurement": "effect on [Ca2+]cyt after SOCE activation", "setting": "[1]", "result": "immediate decrease of [Ca^2+]cyt"}, {"measurement": "dead cells (trypan blue)", "setting": "Jurkat cells; 1 µM P11 alone, 24 h", "result": "4.0 ± 0.4", "unit": "%"}, {"measurement": "dead cells (trypan blue)", "setting": "Jurkat cells; PHA + 1 µM P11, 24 h", "result": "33.2 ± 1.3", "unit": "%"}, {"measurement": "change of IP3R activity", "setting": "IP3R1; 100 µM", "result": "−29 ± 9", "unit": "%"}, {"measurement": "effect on IP3R", "setting": "IP3R1; concentrations < 1 µM", "result": "devoid of any inhibitory activity; also recorded: without any effect"}, {"measurement": "concentration of complete/full SOCE inhibition", "setting": "Jurkat cell SOCE", "result": "below 1 µM"}, {"measurement": "Ki", "setting": "Jurkat cell SOCE; read-out: Ki (nM), inhibition constant on SOCE", "result": "~75 nM and 75 nM"}, {"measurement": "Ki", "setting": "Jurkat cell SOCE; read-out: Ki (µM), inhibition constant on SOCE", "result": "< 1000", "unit": "nM"}, {"measurement": "concentration at which SOCE is totally blocked", "setting": "Jurkat cell SOCE; Figure 2B", "result": "> 100", "unit": "nM"}]}
